Source: patent US5939527A, “Tetrapeptides as antitumor agents” (BASF Aktiengesellschaft, priority 1996, dated 1999)

How the values were obtained:
[1] = tested on: HT-29 colon carcinoma cells; assay type: cell-based; settings: HT-29 cells, 48 hours incubation, MTT; read-out: IC50 (concentration giving a T/C of 50% growth inhibition)
[2] = tested on: Human breast tumors (MX-1); assay: In vivo activity, MX-1 human breast tumor xenograft in athymic nude mice; settings: subcutaneous injection, 10, 20 or 30 mg/kg, three doses per week, days 5-23
Description: Compounds of this invention were further tested in pre-clinical assays for in vivo activity which is indicative of clinical utility. Such assays were conducted with nude mice into which tumor tissue, preferably of human origin, had been transplanted (xenografted), as is well known in this field. Test compounds were evaluated for anti-tumor efficacy following administration to the xenograft-bearing mice.
Human breast tumors (MX-1) which had been grown in athymic nude mice were transplanted into new recipient mice, using tumor fragments which were about 50 mg in size. The day of transplantation was designated as day 0. The mice were divided into four groups of 5-10 mice each. An untreated group served as the control. Three groups were treated by subcutaneous injection of compound 1, with each group receiving three doses per week of 30, 20 or 10 mg/kg body weight. Doses were administered on days 5, 7, 9, 12, 14, 16, 19, 21 and 23 post post-implantation.
Tumor diameters and body weights were measured twice weekly. Tumor volumes were calculated using the diameters measured with Vernier calipers, and the formula
(length×width^2)/2=mm^3 of tumor volume
Mean tumor volumes are calculated for each treatment group, and T/C values determined for each group relative to the untreated control tumors.

[3] = tested on: four different human lymphoma cell lines; settings: cited from earlier work
[4] = tested on: P388 lymphocytic leukemia (PS system) cell line; settings: cited from earlier work
[5] = synthetic Dolastatin 10; cited from earlier work

Row | Compound | IC50 [1] [nM] | inhibition of tumor growth (tumor volume versus post-implantation time) [2] | inhibition of growth of human lymphoma cell lines [3] | growth inhibition of P388 cell line [4] | solubility in aqueous systems [5]
1 | CO[C@H](CC(=O)N1CCC[C@H]1C(=O)Nc1nccs1)[C@H](C(C)C)N(C)C(=O)[C@@H](NC(=O)[C@H](C(C)C)N(C)C)C(C)C [Compound 1, (3R,4S)-4-[N-(N,N-dimethyl-L-valyl-L-valyl)-N-methylamino]-3-methoxy-5-methyl-hexanoyl prolyl-thiazolyl(2)-amide] | 60 | significant dose-dependent inhibition of tumor growth |  |  | 
2 | Dolastatin 15 |  |  | effectively inhibit | inhibits the growth | 
3 | Dolastatin 10 |  |  | effectively inhibit |  | poor solubility
